Entries after “also recorded” stand apart in the source; their conditions may differ. Where two headings read alike, the source gives them in different places.
What was measured:
human neutrophils [1] = assay: Neutrophil spreading on FBS-coated glass coverslips (phase-contrast microscopy); format: cell-based; details: TNF 100 ng/ml
Method: Glass coverslips were placed in 12 well tissue culture plate and coated with FBS in 5% CO2 at 37° C. for at least 1 h and washed three times with 0.9% saline. Neutrophils (2×10^6) were added to each well containing a FBS-coated glass coverslip and 1 ml of reaction mixture and incubated or not with each compound at 37° C. for 30 min before stimulation with TNF (100 ng/ml), PMA (100 ng/ml) or an equal volume of KRPG. Cells were fixed with 2% paraformaldehyde and 3.7% formaldehyde buffer, and photographed with phase-contrast microscope.
To determine whether any of these compounds are implicated in cytoskeletal rearrangement, neutrophils were treated with a compound of the present invention or DMSO and then activated with PMA or TNF. Human neutrophils, isolated as described herein above were plated on FBS-coated glass coverslips and incubated or not with a compound of the present invention at 37° C. for 30 min, followed by stimulation with TNF (100 ng/ml), PMA (100 ng/ml) or an equal volume of KRPG, fixed, and photographed with phase-contrast microscope. Neutrophils adhere and fully spread when activated. However, cells exposed to TNF after incubation with Comp I-IV were arrested in spreading. These compounds seem to block different stages of cell spreading. […] They display almost round and close to non-stimulated cell morphology to quite advanced, yet arrested phenotype before full spreading. […] None of the compounds impeded cell spreading induced by PMA.

Syk = assay: TNF and adhesion triggered tyrosine phosphorylation of Syk in neutrophils (immunoprecipitation, western blot); format: cell-based, human; details: for inhibition of TNF and adhesion triggered tyrosine phosphorylation of Syk: moderately inhibited; for TNF and adhesion triggered tyrosine phosphorylation (activation) of Syk: result in words
Method: Tissue culture plates (Primaria, Falcon) were coated with 3 ml of FBS in 5% CO2 at 37° C. for at least 1 h and washed twice with 0.9% saline. Isolated human neutrophils (1.5×10^6) were added to each plate containing 4 ml of reaction mixture, incubated with each compound at 37° C. for 30 min, and stimulated with either buffer control or TNF (100 ng/ml). When cells were fully spread (20-40 min), they were treated with 5 mM diisopropylfluorophosphate to inhibit serine proteases and lysed with either 125 μl of SDS lysis buffer (10 mM Tris-HCl, pH 7.6, 150 mM NaCl, 1% SDS, 1 mM PMSF, 1 mM Na pyrophosphate, 1 mM NaF, 1 mM vanadate, 5 μg/ml each of aprotinin, leupeptin, chymostatin, pepstatin A) for western blot, or with 200 μl of non-denaturing modified RIPA buffer (10 mM Tris-HCl, pH 7.6, 150 mM NaCl, 1% Triton-X100, 1 mM PMSF, 1 mM Na pyrophosphate, 1 mM NaF, 1 mM vanadate, 5 μg/ml each of aprotinin, leupeptin, chymostatin, pepstatin A) for immunoprecipitation. The cell lysate was passed through a 26-gauge needle six times to shear DNA and centrifuged at 20,000×g for 15 min to remove cell debris and DNA. The protein concentration was determined using a Bio-Rad (Indianapolis, Ind.) kit. Cell lysates were separated by SDS-PAGE and transferred electrophoretically to nitrocellulose membranes (Schleicher & Schuell, Inc., Keene, N.H.). The membranes were incubated with 5% milk in TBST ([…], 0.1% Tween-20) for 1 h at 37° C. and then overnight at 4° C. with anti-phosphotyrosine antibody (Santa Cruz), anti-Syk antibody (Transduction Laboratories, Newington, N.H.), anti-phospho-specific Pyk2 antibodies (Biosource International, Camarillo, Calif.), or anti-Pyk2 antibody (Upstate Biotech, Waltham, Mass.). Membranes were washed with TBST and incubated with secondary Ab conjugated with HRP in 5% milk in TBST for 1 h at 37° C. After further washing with TBST, bound antibody was detected by enhanced chemiluminescence (Pierce ECL, Amersham Pharmacia, Piscataway, N.J.).
Also investigated was the impact of the compounds of the present invention on several known tyrosine kinases such as Src, Syk, and Pyk2, which are shown to be critical in the signaling pathways triggered by TNF. Kinase assays were performed according to the instructions provided by United Bioinformatica, Inc. ((UBI) Calgary, AB, Canada), from which recombinant Src and Syk were purchased. Briefly, after incubation of recombinant Src (40 U) (UBI, Calgary, AB, Canada) with each compound at RT for 30 min, Src kinase reaction buffer (100 mM Tris-HCl, pH 7.2, 125 mM MgCl2, 25 mM MnCl2, 2 mM EGTA, 0.25 mM NaOV4, 2 mM DTT), Src kinase substrate peptide (375 μM, UBI, Calgary, AB, Canada), and [γ-32P]ATP were added to the enzyme. After incubation at 30° C. for 10 min, the reaction was stopped by addition of 40% trichloroacetic acid (TCA). Samples were transferred to a P81 paper square (UBI, Calgary, AB, Canada), the unincorporated radioactivity was washed off with 0.75% phosphoric acid and acetone, and the assay square was placed in a scintillation counter. For Syk kinase assay, reaction buffer contained 50 mM Tris-HCl, pH 7.5, 0.1 mM EGTA, 0.1 mM NaOV4, 0.15 M 2-mercaptoethanol and substrate was poly (Glu-4-Tyr)(4:1) (CSI Biointernational, France). […] It appears that these compounds block—partially by Comp I and II and completely by Comp III and IV—upstream signaling events for Syk activation rather than directly blocking Syk activity.

human neutrophils [2] = assay: TNF-triggered H2O2 release (respiratory burst) by adherent human neutrophils; format: cell-based; details: for IC50: Homo sapiens, Neutrophil, TNF 100 ng/ml; for Concentration that consistently yielded over 95% inhibition on TNF triggered RB: empirically decided for each compound
Method: Contaminating erythrocytes were lysed by hypotonic shock for 45 seconds with 0.2% saline.
Briefly, 15,000 compounds were screened to identify specific inhibitors of TNF-triggered H2O2 release in human neutrophils. H2O2 release was measured as above except a few modifications to adapt to high throughput screening. […] Percent inhibition by each compound was calculated using the formula: […]
Briefly, 96-well flat-bottomed plates (Primaria, Falcon) were coated with 50 μl/well of FBS in 5% CO2 at 37° C. for at least 1 h and washed three times with 0.9% saline. Neutrophils (1.5×10^4) were added to triplicate wells containing 100 μl of reaction mixture (2.4 nm scopoletin, 0.5 μg horseradish peroxidase (HRP), and 1 mM NaN3) and stimulated with either buffer control, TNF (PreproTech, London, UK) or phorbol myristate acetate (PMA), each at 100 ng/ml. […] The supernatant from the H2O2 release assay with 1.5×10^4 neutrophils was used to measure degranulation using lactoferrin (LF) or myeloperoxidase (MPO) ELISA kit (Oxis International, Inc., Portland, Oreg.). Spontaneous cell death from the same supernatant was measured using Cytotoxicity Detection Kit (Roche Molecular Biochemicals, Nutley, N.J.). The total cell content of LF, MPO, and lactate dehydrogenase (LDH) was determined after lysing cells with 1% Triton X100. LDH is a cytosolic enzyme whose release indicates cell lysis, such that high release of LF or MPO in the face of low release of LDH is taken as a measure of degranulation.

[3] = 1.5 h, H2O2 release at 90 min, read-out: IC50, TNF triggered H2O2 release

IC50 (human neutrophils [2]; [3]) [nM]	IC50 (human neutrophils [2]; range given with mixed units nM and μM, read-out: IC50, TNF triggered H2O2 release (very variable)) [nM]	Compound	cell spreading triggered by TNF (human neutrophils [1])	inhibition of TNF and adhesion triggered tyrosine phosphorylation of Syk (Syk)	Concentration that consistently yielded over 95% inhibition on TNF triggered RB (human neutrophils [2]) [µM]	TNF and adhesion triggered tyrosine phosphorylation (activation) of Syk (Syk)	effect on TNF triggered H2O2 release (respiratory burst) (human neutrophils [2]; result in words)
~180		Cc1nc(N/N=C/c2ccccc2O)c2c3c(sc2n1)CCCC3 [Comp I, 2-[(2-Methyl-5,6,7,8-tetrahydro-benzo[4,5]thieno [2,3-a]pyrimidin-4-yl)-hydrazonomethyl]-phenol]	very heterogeneous morphology	about 50%	2		
2500 ± 1500		C(=N\Nc1ncnc2sc3c(c12)CCCC3)/c1cccnc1 [Comp III, N-Pyridin-3-ylmethylene-N-(5,6,7,8-tetrahydro-benzo[4,5] [2,3-a]pyrimidin-4-yl)-hydrazine]	after extending a few pseudopodia; also recorded: block cell spreading at the earliest stage		5	completely inhibited	
	3 to 2000	O=C(CSc1nc2ccccc2s1)N/N=C/c1cc([N+](=O)[O-])ccc1O [Comp IV, (Benzothiazol-2-ylsulfanyl)-acetic acid (2-hydroxy-5-nitro-benzylidene) -hydrazide]	arrested after flattening and extending several filopodia		10	completely inhibited	

Compound	IC50 (human neutrophils [2]; [3]) [nM]	IC50 (human neutrophils [2]; range given with mixed units nM and μM, read-out: IC50, TNF triggered H2O2 release (very variable)) [nM]	cell spreading triggered by TNF (human neutrophils [1])	inhibition of TNF and adhesion triggered tyrosine phosphorylation of Syk (Syk)	Concentration that consistently yielded over 95% inhibition on TNF triggered RB (human neutrophils [2]) [µM]	TNF and adhesion triggered tyrosine phosphorylation (activation) of Syk (Syk)	effect on TNF triggered H2O2 release (respiratory burst) (human neutrophils [2]; result in words)
O=C1CC(c2ccccc2)=NN1c1cccc(Cl)c1 [Comp II, 2-(3-Chloro-phenyl)-5-phenyl-2,4-dihydro-pyrazol-3-one]	1600 ± 400		arrested after flattening and extending several filopodia; also recorded: inhibited	about 50%	5	did not block	inhibited

— patent US7977366B2, “Treating an inflammatory disorder or inhibiting respiratory burst in adherent neutrophils with chemical inhibitors of neutrophil activation” (Cornell Research Foundation, Inc., priority 2003, dated 2011)
